The source of these data is the kinase profiling compilation of Christmann-Franck et al. (2016).

SMILES strings stand for the structures.

Chain of PRKAA1 (human) (Q13131 whole entry, looked up): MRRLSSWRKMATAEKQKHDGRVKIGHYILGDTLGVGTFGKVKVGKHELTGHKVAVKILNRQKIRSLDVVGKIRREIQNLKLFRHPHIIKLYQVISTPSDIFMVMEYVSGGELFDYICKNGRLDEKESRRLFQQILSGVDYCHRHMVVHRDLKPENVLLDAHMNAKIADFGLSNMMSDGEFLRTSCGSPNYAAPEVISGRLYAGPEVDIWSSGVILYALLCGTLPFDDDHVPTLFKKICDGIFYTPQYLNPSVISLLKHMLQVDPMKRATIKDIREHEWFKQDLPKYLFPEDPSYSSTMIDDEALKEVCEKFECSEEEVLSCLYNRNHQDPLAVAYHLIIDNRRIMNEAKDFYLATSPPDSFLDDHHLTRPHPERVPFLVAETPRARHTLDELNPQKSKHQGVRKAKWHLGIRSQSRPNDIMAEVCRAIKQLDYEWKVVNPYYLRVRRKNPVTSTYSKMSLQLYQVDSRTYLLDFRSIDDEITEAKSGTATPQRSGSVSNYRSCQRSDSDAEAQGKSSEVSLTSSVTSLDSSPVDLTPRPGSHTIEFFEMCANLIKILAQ

The first assay relates to PRKACA (mouse). Conditions: compound 10.0 µM; accession and sequence are those of the human protein.
What is called inhibition is the drop in the measured response relative to a control, in per cent. Low readings indicate little suppression, high ones strong suppression. The compound `O=C1Nc2ccc(I)cc2/C1=C/c1cc(Br)c(O)c(Br)c1` returned an inhibition of 9%.

`Cc1[nH]c(/C=C2\C(=O)Nc3ccc(S(=O)(=O)Cc4c(Cl)cccc4Cl)cc32)c(C)c1C(=O)N1CCC[C@@H]1CN1CCCC1` displayed an inhibition of 1%.

`NC(=O)c1sc(-c2ccsc2)cc1N` had an inhibition of 0%.

The compound `NC(=O)c1ccc(-c2nc(-c3ccccn3)c(-c3ccc4c(c3)OCCO4)[nH]2)cc1` registered an inhibition of 0%.

`Cn1cnc2c(NCc3ccccc3)nc(NCCO)nc21` showed an inhibition of 5%.

`COc1cc2nccc(Oc3ccc(NC(=O)Nc4ccc(F)cc4F)c(F)c3)c2cc1OC` displayed an inhibition of 16%.

`O=c1cc(N2CCOCC2)oc2c(-c3ccccc3)cccc12` showed an inhibition of 0%.

In turn, `CS(=O)c1ccc(-c2nc(-c3ccc(F)cc3)c(-c3ccncc3)[nH]2)cc1` (stereo not drawn) came in with an inhibition of 0%.

`NC(=O)c1ccc(-c2nc(-c3ccccn3)c(-c3ccc4c(c3)OCO4)[nH]2)cc1` came in with an inhibition of 0%.

As for `Cn1cc(C2=C(c3cn(CCCSC(=N)N)c4ccccc34)C(=O)NC2=O)c2ccccc21`, the inhibition turned out to be 62%.

As for `CN1CCC(Nc2ncc3ncnc(Nc4ccc(F)c(Cl)c4)c3n2)CC1`, the inhibition worked out at 6%.

For `C=CC(=O)c1ccc2ccccc2c1`, the inhibition is 0%.

The compound `CC(=O)c1c(O)c(C)c(O)c(Cc2c(O)c3c(c(C(=O)/C=C/c4ccccc4)c2O)OC(C)(C)C=C3)c1O` registered an inhibition of 16%.

For `CS(=O)(=O)CCNCc1nc(-c2ccc3ncnc(Nc4ccc(OCc5cccc(F)c5)c(Cl)c4)c3c2)cs1`, the inhibition stood at 8%.

`O=c1cc(N2CCOCC2)nc2c3ccccc3ccn12` showed an inhibition of 0%.

For `N#C/C(=C\c1ccc(O)c(O)c1)C(=O)NCc1ccccc1`, the inhibition was determined as 3%.

`O=C1c2ccccc2-c2n[nH]c3cccc1c23` had an inhibition of 0%.

Regarding `CC(C)N(CCC(=O)c1ccc2ccccc2c1)Cc1ccccc1`, the inhibition turned out to be 1%.

Turning to `O=c1[nH]nc(Sc2ncc([N+](=O)[O-])s2)n1-c1ccc2c(c1)OCCO2`, the inhibition stood at 5%.

With `c1cc(-c2cnn3cc(-c4ccc(OCCN5CCCCC5)cc4)cnc23)ccn1`, the inhibition was 0%.

`Cn1cc(C2=C(c3ccc(Cl)cc3Cl)C(=O)NC2=O)c2ccccc21` displayed an inhibition of 5%.

Compound `CN1CC[C@H](c2c(O)cc(O)c3c(=O)cc(-c4ccccc4Cl)oc23)[C@H](O)C1` registered an inhibition of 5%.

For `Nc1ccc(-c2cccc3c(=O)cc(N4CCOCC4)oc23)cc1`, the inhibition turned out to be 0%.

Compound `O=C1NC(=O)C(c2ccccc2[N+](=O)[O-])=C1Nc1ccc(O)c(Cl)c1` gave an inhibition of 0%.

Consider `O=C(c1ccc(Nc2nccc(-c3cc4ccccc4s3)n2)cc1)N1CCC(N2CCCC2)CC1`, for which the inhibition came out at 12%.

`COc1cc(CC2C(=O)OC[C@@H]2Cc2ccc(OC)c(OC)c2)ccc1O` (stereo partly drawn) yielded an inhibition of 0%.

In the case of `Cc1ccc(-c2nn(C(C)(C)C)c3ncnc(N)c23)cc1`, the inhibition came out at 19%.

For the compound `COc1ccc(C(=O)Nc2sc3c(c2C(N)=O)CCCC3)cc1OC`, the inhibition was 12%.

In turn, `O=C(NC(NC(=S)Nc1ccc(F)c([N+](=O)[O-])c1)C(Cl)(Cl)Cl)C(c1ccccc1)c1ccccc1` (stereo not drawn) had an inhibition of 0%.

`NC(=O)Nc1sc(-c2ccc(F)cc2)cc1C(N)=O` yielded an inhibition of 4%.

On to `N#C/C(=C(/N)Sc1ccc(N)cc1)c1ccccc1C(F)(F)F`, for which the inhibition amounted to 2%.

A further assay has as its target PRKAA1 (human) (UniProt Q13131). Conditions: compound 10.0 µM.
With `O=C1Nc2ccc(I)cc2/C1=C/c1cc(Br)c(O)c(Br)c1`, the inhibition came out at 0%.

On to `Cc1[nH]c(/C=C2\C(=O)Nc3ccc(S(=O)(=O)Cc4c(Cl)cccc4Cl)cc32)c(C)c1C(=O)N1CCC[C@@H]1CN1CCCC1`, for which the inhibition stood at 59%.

`NC(=O)c1sc(-c2ccsc2)cc1N` came in with an inhibition of 1%.

`NC(=O)c1ccc(-c2nc(-c3ccccn3)c(-c3ccc4c(c3)OCCO4)[nH]2)cc1` showed an inhibition of 0%.

Turning to `Cn1cnc2c(NCc3ccccc3)nc(NCCO)nc21`, the inhibition was 0%.

The compound `COc1cc2nccc(Oc3ccc(NC(=O)Nc4ccc(F)cc4F)c(F)c3)c2cc1OC` displayed an inhibition of 0%.

`O=c1cc(N2CCOCC2)oc2c(-c3ccccc3)cccc12` returned an inhibition of 0%.

Compound `CS(=O)c1ccc(-c2nc(-c3ccc(F)cc3)c(-c3ccncc3)[nH]2)cc1` (stereo not drawn) showed an inhibition of 0%.

Take `NC(=O)c1ccc(-c2nc(-c3ccccn3)c(-c3ccc4c(c3)OCO4)[nH]2)cc1`: the inhibition was 0%.

Compound `Cn1cc(C2=C(c3cn(CCCSC(=N)N)c4ccccc34)C(=O)NC2=O)c2ccccc21` had an inhibition of 25%.

Take `CN1CCC(Nc2ncc3ncnc(Nc4ccc(F)c(Cl)c4)c3n2)CC1`: the inhibition worked out at 0%.

`C=CC(=O)c1ccc2ccccc2c1` had an inhibition of 0%.

As for `CC(=O)c1c(O)c(C)c(O)c(Cc2c(O)c3c(c(C(=O)/C=C/c4ccccc4)c2O)OC(C)(C)C=C3)c1O`, the inhibition was 0%.

As for `CS(=O)(=O)CCNCc1nc(-c2ccc3ncnc(Nc4ccc(OCc5cccc(F)c5)c(Cl)c4)c3c2)cs1`, the inhibition turned out to be 0%.

The compound `O=c1cc(N2CCOCC2)nc2c3ccccc3ccn12` returned an inhibition of 7%.

Compound `N#C/C(=C\c1ccc(O)c(O)c1)C(=O)NCc1ccccc1` registered an inhibition of 0%.

`O=C1c2ccccc2-c2n[nH]c3cccc1c23` came in with an inhibition of 0%.

`CC(C)N(CCC(=O)c1ccc2ccccc2c1)Cc1ccccc1`: the inhibition came to 0%.

Compound `O=c1[nH]nc(Sc2ncc([N+](=O)[O-])s2)n1-c1ccc2c(c1)OCCO2` returned an inhibition of 2%.

`c1cc(-c2cnn3cc(-c4ccc(OCCN5CCCCC5)cc4)cnc23)ccn1`: the inhibition was 45%.

Consider `Cn1cc(C2=C(c3ccc(Cl)cc3Cl)C(=O)NC2=O)c2ccccc21`, for which the inhibition is 0%.

Regarding `CN1CC[C@H](c2c(O)cc(O)c3c(=O)cc(-c4ccccc4Cl)oc23)[C@H](O)C1`, the inhibition stood at 0%.

`Nc1ccc(-c2cccc3c(=O)cc(N4CCOCC4)oc23)cc1` came in with an inhibition of 0%.

Regarding `O=C1NC(=O)C(c2ccccc2[N+](=O)[O-])=C1Nc1ccc(O)c(Cl)c1`, the inhibition turned out to be 2%.

Take `O=C(c1ccc(Nc2nccc(-c3cc4ccccc4s3)n2)cc1)N1CCC(N2CCCC2)CC1`: the inhibition was 63%.

Turning to `COc1cc(CC2C(=O)OC[C@@H]2Cc2ccc(OC)c(OC)c2)ccc1O` (stereo partly drawn), the inhibition is 0%.

As to `Cc1ccc(-c2nn(C(C)(C)C)c3ncnc(N)c23)cc1`, the inhibition was 0%.

Consider `COc1ccc(C(=O)Nc2sc3c(c2C(N)=O)CCCC3)cc1OC`, for which the inhibition was determined as 9%.

For the compound `O=C(NC(NC(=S)Nc1ccc(F)c([N+](=O)[O-])c1)C(Cl)(Cl)Cl)C(c1ccccc1)c1ccccc1` (stereo not drawn), the inhibition turned out to be 0%.

In turn, `NC(=O)Nc1sc(-c2ccc(F)cc2)cc1C(N)=O` returned an inhibition of 8%.

Consider `N#C/C(=C(/N)Sc1ccc(N)cc1)c1ccccc1C(F)(F)F`, for which the inhibition came out at 0%.

For a further assay, the target named is AKT1 (human) (UniProt P31749). Conditions: compound 10.0 µM.
Chain of AKT1 (human) (P31749 whole entry, looked up): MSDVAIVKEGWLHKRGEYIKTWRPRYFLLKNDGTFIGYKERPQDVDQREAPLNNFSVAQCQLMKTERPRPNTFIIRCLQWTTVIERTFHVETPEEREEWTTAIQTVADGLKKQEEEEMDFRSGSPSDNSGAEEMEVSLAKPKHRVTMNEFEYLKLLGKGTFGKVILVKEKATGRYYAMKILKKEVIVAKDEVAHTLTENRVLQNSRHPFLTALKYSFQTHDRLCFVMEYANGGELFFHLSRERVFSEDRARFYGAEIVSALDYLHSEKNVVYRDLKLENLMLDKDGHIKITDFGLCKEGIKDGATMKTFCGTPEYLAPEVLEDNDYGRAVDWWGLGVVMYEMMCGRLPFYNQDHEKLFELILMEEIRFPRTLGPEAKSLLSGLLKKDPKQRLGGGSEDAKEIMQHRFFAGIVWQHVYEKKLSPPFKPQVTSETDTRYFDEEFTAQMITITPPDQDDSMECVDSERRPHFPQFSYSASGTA
On to `O=C1Nc2ccc(I)cc2/C1=C/c1cc(Br)c(O)c(Br)c1`, for which the inhibition was determined as 19%.

For the compound `Cc1[nH]c(/C=C2\C(=O)Nc3ccc(S(=O)(=O)Cc4c(Cl)cccc4Cl)cc32)c(C)c1C(=O)N1CCC[C@@H]1CN1CCCC1`, the inhibition was 8%.

With `NC(=O)c1sc(-c2ccsc2)cc1N`, the inhibition amounted to 0%.

With `NC(=O)c1ccc(-c2nc(-c3ccccn3)c(-c3ccc4c(c3)OCCO4)[nH]2)cc1`, the inhibition was determined as 2%.

`Cn1cnc2c(NCc3ccccc3)nc(NCCO)nc21` gave an inhibition of 5%.

The compound `COc1cc2nccc(Oc3ccc(NC(=O)Nc4ccc(F)cc4F)c(F)c3)c2cc1OC` displayed an inhibition of 6%.

The compound `O=c1cc(N2CCOCC2)oc2c(-c3ccccc3)cccc12` came in with an inhibition of 0%.

Compound `CS(=O)c1ccc(-c2nc(-c3ccc(F)cc3)c(-c3ccncc3)[nH]2)cc1` (stereo not drawn) returned an inhibition of 11%.

For the compound `NC(=O)c1ccc(-c2nc(-c3ccccn3)c(-c3ccc4c(c3)OCO4)[nH]2)cc1`, the inhibition was 1%.

`Cn1cc(C2=C(c3cn(CCCSC(=N)N)c4ccccc34)C(=O)NC2=O)c2ccccc21`: the inhibition came to 62%.

Turning to `CN1CCC(Nc2ncc3ncnc(Nc4ccc(F)c(Cl)c4)c3n2)CC1`, the inhibition stood at 0%.

In turn, `C=CC(=O)c1ccc2ccccc2c1` came in with an inhibition of 0%.

In the case of `CC(=O)c1c(O)c(C)c(O)c(Cc2c(O)c3c(c(C(=O)/C=C/c4ccccc4)c2O)OC(C)(C)C=C3)c1O`, the inhibition was 24%.

`CS(=O)(=O)CCNCc1nc(-c2ccc3ncnc(Nc4ccc(OCc5cccc(F)c5)c(Cl)c4)c3c2)cs1`: the inhibition is 16%.

In turn, `O=c1cc(N2CCOCC2)nc2c3ccccc3ccn12` gave an inhibition of 0%.

Turning to `N#C/C(=C\c1ccc(O)c(O)c1)C(=O)NCc1ccccc1`, the inhibition came out at 0%.

Compound `O=C1c2ccccc2-c2n[nH]c3cccc1c23` displayed an inhibition of 0%.

As to `CC(C)N(CCC(=O)c1ccc2ccccc2c1)Cc1ccccc1`, the inhibition came out at 0%.

`O=c1[nH]nc(Sc2ncc([N+](=O)[O-])s2)n1-c1ccc2c(c1)OCCO2` returned an inhibition of 0%.

As to `c1cc(-c2cnn3cc(-c4ccc(OCCN5CCCCC5)cc4)cnc23)ccn1`, the inhibition was determined as 0%.

`Cn1cc(C2=C(c3ccc(Cl)cc3Cl)C(=O)NC2=O)c2ccccc21`: the inhibition was 3%.

With `CN1CC[C@H](c2c(O)cc(O)c3c(=O)cc(-c4ccccc4Cl)oc23)[C@H](O)C1`, the inhibition came out at 1%.

Regarding `Nc1ccc(-c2cccc3c(=O)cc(N4CCOCC4)oc23)cc1`, the inhibition is 2%.

Compound `O=C1NC(=O)C(c2ccccc2[N+](=O)[O-])=C1Nc1ccc(O)c(Cl)c1` returned an inhibition of 0%.

`O=C(c1ccc(Nc2nccc(-c3cc4ccccc4s3)n2)cc1)N1CCC(N2CCCC2)CC1`: the inhibition was found to be 0%.

As to `COc1cc(CC2C(=O)OC[C@@H]2Cc2ccc(OC)c(OC)c2)ccc1O` (stereo partly drawn), the inhibition is 0%.

`Cc1ccc(-c2nn(C(C)(C)C)c3ncnc(N)c23)cc1` returned an inhibition of 2%.

With `COc1ccc(C(=O)Nc2sc3c(c2C(N)=O)CCCC3)cc1OC`, the inhibition stood at 0%.

Regarding `O=C(NC(NC(=S)Nc1ccc(F)c([N+](=O)[O-])c1)C(Cl)(Cl)Cl)C(c1ccccc1)c1ccccc1` (stereo not drawn), the inhibition was 5%.

Consider `NC(=O)Nc1sc(-c2ccc(F)cc2)cc1C(N)=O`, for which the inhibition turned out to be 0%.

`N#C/C(=C(/N)Sc1ccc(N)cc1)c1ccccc1C(F)(F)F` came in with an inhibition of 0%.
